Data published in patent publication US12139487B2, “Compounds and uses thereof” (Foghorn Therapeutics Inc., priority 2022, dated 2024).

Legend:
[1] = molecular target: T1, BRG-1 (Homo sapiens, UniProt P51532); experiment: ATPase catalytic activity assay (ADP-Glo), BRG-1; format: biochemical; settings: Table 10, read-out: BRG1 IC50
T1 construct: made in house; host or cells: High Five insect cells
Outline: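 Signal reflects ADP produced by the enzyme, quantified as luminescence after unused ATP is cleared and ADP is reconverted to ATP for the luciferase reaction; both steps run at room temperature, 40 and 60 min respectively.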

[2] = molecular target: T2, BRM (Homo sapiens, UniProt P51531); experiment: ATPase catalytic activity assay (ADP-Glo), BRM; format: biochemical; settings: Table 10; for Ratio (BRG1 IC50 (μM) divided by BRM IC50 (μM)): ATPase assay, selectivity BRG1/BRM; for IC50: ATPase catalytic activity assay (ADP-Glo)
T2 construct: made in house; host or cells: High Five insect cells
T2 sequence (P51531 whole entry): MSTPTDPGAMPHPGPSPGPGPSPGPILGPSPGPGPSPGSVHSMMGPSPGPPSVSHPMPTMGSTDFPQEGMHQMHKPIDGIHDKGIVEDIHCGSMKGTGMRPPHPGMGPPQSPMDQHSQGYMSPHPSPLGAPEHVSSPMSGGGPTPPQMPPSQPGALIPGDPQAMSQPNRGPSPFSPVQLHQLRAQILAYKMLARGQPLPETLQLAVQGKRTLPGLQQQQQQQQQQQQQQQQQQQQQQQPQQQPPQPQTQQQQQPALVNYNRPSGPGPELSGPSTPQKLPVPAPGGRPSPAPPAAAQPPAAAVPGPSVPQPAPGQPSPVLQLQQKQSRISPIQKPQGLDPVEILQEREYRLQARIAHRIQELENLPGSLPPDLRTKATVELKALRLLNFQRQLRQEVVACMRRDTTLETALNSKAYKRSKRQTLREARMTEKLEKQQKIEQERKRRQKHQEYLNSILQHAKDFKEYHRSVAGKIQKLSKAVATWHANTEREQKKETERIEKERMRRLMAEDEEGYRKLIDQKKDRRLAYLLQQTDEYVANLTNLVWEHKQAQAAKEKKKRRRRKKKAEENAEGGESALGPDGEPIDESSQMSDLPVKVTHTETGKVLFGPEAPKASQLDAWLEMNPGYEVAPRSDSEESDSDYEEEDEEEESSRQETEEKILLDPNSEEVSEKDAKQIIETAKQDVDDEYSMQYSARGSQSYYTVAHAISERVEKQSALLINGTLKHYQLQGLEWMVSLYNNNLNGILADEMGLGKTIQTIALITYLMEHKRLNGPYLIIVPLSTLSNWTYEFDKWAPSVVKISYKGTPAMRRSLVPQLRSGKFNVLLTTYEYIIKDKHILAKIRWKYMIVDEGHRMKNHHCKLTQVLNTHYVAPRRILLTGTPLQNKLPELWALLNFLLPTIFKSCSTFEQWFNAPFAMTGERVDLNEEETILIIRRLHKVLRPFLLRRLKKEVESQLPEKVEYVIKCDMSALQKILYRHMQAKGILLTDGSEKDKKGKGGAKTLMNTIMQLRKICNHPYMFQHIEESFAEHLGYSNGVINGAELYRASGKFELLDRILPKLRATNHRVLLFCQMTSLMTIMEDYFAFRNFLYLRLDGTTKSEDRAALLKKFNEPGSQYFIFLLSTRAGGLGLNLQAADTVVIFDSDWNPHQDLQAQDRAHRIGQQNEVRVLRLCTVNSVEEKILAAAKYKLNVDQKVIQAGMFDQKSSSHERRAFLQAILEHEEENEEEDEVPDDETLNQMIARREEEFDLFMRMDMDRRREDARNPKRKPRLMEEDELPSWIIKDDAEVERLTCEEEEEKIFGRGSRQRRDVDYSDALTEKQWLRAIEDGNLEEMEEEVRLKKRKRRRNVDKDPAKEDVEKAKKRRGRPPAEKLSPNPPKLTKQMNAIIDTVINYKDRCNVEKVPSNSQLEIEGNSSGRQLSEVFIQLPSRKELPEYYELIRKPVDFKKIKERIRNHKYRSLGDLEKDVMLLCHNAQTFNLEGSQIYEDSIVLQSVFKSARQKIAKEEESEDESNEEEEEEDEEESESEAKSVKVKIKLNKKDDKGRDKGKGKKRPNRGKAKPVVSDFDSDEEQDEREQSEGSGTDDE
Outline: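 Reaction holds 30 nM BRM, 20 nM salmon sperm DNA and 400 μM ATP in 20 mM Tris pH 8, 20 mM MgCl2, 50 mM NaCl, 0.1% Tween-20, 1 mM DTT. Incubated 1 h at room temperature. ADP formed is detected by ADP-Glo luminescence.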

T1 sequence (P51532 whole entry): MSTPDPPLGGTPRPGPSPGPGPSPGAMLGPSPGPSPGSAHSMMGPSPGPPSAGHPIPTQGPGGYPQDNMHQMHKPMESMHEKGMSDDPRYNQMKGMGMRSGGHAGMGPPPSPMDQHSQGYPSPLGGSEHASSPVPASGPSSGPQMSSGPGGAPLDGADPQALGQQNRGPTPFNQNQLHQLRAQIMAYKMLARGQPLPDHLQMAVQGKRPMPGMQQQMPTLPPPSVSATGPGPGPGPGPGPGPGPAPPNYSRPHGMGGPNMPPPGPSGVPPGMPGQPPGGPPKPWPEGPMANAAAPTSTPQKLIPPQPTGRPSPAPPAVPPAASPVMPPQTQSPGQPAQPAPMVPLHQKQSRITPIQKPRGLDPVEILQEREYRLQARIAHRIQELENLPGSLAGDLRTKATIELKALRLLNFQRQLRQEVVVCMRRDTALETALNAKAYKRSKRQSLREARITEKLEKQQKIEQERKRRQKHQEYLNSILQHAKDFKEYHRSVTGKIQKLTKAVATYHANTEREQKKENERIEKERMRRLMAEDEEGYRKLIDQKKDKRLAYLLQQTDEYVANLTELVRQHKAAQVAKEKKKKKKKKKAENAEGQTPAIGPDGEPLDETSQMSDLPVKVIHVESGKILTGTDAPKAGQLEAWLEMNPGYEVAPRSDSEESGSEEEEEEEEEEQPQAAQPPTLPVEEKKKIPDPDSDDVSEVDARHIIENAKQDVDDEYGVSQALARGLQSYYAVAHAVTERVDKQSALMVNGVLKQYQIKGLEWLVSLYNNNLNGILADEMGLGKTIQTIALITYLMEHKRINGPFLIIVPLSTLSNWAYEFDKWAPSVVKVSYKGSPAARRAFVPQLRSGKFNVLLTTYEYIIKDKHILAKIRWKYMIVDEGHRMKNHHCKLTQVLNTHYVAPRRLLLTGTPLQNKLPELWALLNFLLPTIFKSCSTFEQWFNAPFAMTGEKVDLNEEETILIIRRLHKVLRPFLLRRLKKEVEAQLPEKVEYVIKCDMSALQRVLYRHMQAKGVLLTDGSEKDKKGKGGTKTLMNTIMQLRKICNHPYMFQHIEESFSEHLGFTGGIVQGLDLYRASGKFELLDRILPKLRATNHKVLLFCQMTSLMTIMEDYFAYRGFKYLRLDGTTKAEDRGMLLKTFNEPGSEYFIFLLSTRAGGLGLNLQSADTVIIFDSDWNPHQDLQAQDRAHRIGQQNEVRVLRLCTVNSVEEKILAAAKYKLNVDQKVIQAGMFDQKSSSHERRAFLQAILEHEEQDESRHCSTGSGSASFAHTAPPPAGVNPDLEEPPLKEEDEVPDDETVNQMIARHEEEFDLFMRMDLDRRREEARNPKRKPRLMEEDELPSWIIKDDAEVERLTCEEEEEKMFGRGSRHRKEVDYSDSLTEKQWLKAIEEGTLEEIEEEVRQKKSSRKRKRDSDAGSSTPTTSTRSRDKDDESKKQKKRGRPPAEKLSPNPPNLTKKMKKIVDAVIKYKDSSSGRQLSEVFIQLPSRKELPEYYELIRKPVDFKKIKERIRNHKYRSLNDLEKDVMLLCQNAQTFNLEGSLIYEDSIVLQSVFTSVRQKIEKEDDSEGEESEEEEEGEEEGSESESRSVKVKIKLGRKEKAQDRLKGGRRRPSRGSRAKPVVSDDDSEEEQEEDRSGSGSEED

IC50 [1] [nM] | Ratio (BRG1 IC50 (μM) divided by BRM IC50 (μM)) [2] | IC50 [2] [nM] | Structure (SMILES)
163 | 17.58 | 9.4 | O=C(NCc1cc2nc(N3CCOc4cc(F)cnc43)ccc2cn1)c1cc(F)c2c(c1)S(=O)(=O)[C@@H](F)CCO2 [Compound 282]
102 | 14.03 | 7.2 | C[C@@H]1CN(c2cccc(-c3ccc4nnc(CNC(=O)c5cc(Cl)c6c(c5)S(=O)(=O)[C@@H](F)CCO6)cc4c3)n2)C[C@H](C)O1 [Compound 231]
160 | 21.61 | 7.4 | C[C@@H]1CCN1c1cnc2c(c1)CCCN2c1ccc2cnc(CNC(=O)c3cc(F)c4c(c3)S(=O)(=O)[C@@H](F)CCO4)cc2n1 [Compound 236]
66.6 | 21.76 | 2.8 | O=C(NCc1cc2nc(N3CCOc4ccc(C5CC5)nc43)ccc2cn1)c1cc(F)c2c(c1)S(=O)(=O)[C@@H](F)COC2 [Compound 72]
69.2 | 11.72 | 5.9 | CCCc1ccnc2c1OCCN2c1ccc2cnc(CNC(=O)c3cc(F)c4c(c3)S(=O)(=O)[C@@H](F)CCO4)cc2n1 [Compound 194]
329 | 28.69 | 10.4 | COc1nc([C@H](C)F)ccc1-c1ccc2cnc(CNC(=O)c3cc(Cl)c4c(c3)S(=O)(=O)[C@@H](F)CCO4)cc2n1 [Compound 308]
71.1 | 15.94 | 4.5 | O=C(NCc1cc2nc(N3CCOc4cc(C56CC(C5)C6)cnc43)ccc2cn1)c1cc(F)c2c(c1)S(=O)(=O)[C@@H](F)CCO2 [Compound 130]
72.5 |  | 2.5 | [2H]C1([2H])OC([2H])([2H])[C@H](F)S(=O)(=O)c2cc(C(=O)NCc3cc4nc(N5CCOc6ccc(C7CC7)nc65)ccc4cn3)cc(F)c21 [Compound 59]
74.9 | 13.12 | 4.6 | COc1nc(C(F)F)ccc1-c1ccc2cnc(CNC(=O)c3cc(F)c4c(c3)S(=O)(=O)[C@@H](F)CCO4)c(F)c2n1 [Compound 136]
220 | 26.90 | 8 | O=C(NCc1cc2nc(-c3cccc([C@H]4CC4(F)F)n3)ccc2cn1)c1cc(F)c2c(c1)S(=O)(=O)[C@@H](F)CCO2 [Compound 250]
34.4 | 12.12 | 3 | C[C@@H]1CN(c2cccc(-c3ccc4cnc(CNC(=O)c5cc(Cl)c6c(c5)S(=O)(=O)[C@@H](F)COC6)cc4n3)n2)C[C@H](C)O1 [Compound 79]
27 | 13.35 | 2 | O=C(NCc1cc2nc(-c3cccc(OC(F)F)n3)ccc2cn1)c1ccc2c(c1)S(=O)(=O)[C@@H](F)CCOC2 [Compound 42]
36.8 | 17.61 | 2.5 | O=C(NCc1cc2nc(N3CCOc4ccc(N5CC[C@H](F)C5)nc43)ccc2cn1)c1cc(F)c2c(c1)S(=O)(=O)[C@@H](F)CCO2 [Compound 57]
83.4 | 23.62 | 3.5 | O=C(NCc1cc2cc(-c3cncc(N4CCCC4)n3)ccc2cn1)c1cc(F)c2c(c1)S(=O)(=O)[C@@H](F)CCO2 [Compound 101]
111 | 18.60 | 4.5 | CCOc1ccnc2c1OCCN2c1ccc2cnc(CNC(=O)c3cc(F)c4c(c3)S(=O)(=O)[C@@H](F)CCO4)cc2n1 [Compound 129]
42.7 | 10.21 | 3.6 | CO[C@@H]1CN(c2cccc(-c3ccc4cnc(CNC(=O)c5cc(F)c6c(c5)S(=O)(=O)[C@@H](F)CCO6)cc4n3)n2)C[C@H]1C [Compound 104]
79.8 | 11.79 | 7 | C[C@@H]1CN(c2cccc(-c3ccc4cnc(CNC(=O)c5cc(F)c6c(c5)S(=O)(=O)[C@H](F)CO[C@@H]6C)cc4n3)n2)C[C@H](C)O1 [Compound 222]
21.4 | 7.29 | 2.9 | C[C@@H]1CN(c2cccc(-c3ccc4cnc(CNC(=O)c5ccc6c(c5)S(=O)(=O)[C@@H](F)CN(C)C6)cc4n3)n2)C[C@H](C)O1 [Compound 1, (R)—N-((2-(6-((2S,6R)-2,6-dimethylmorpholino)pyridin-2-yl)-1,6-naphthyridin-7-yl)methyl)-2-fluoro-4-methyl-2,3,4,5-tetrahydrobenzo[f][1,4]thiazepine-8-carboxamide 1,1-dioxide]
42.7 | 12.19 | 3.5 | CCN(CC)c1cnc2c(c1)OCCN2c1ccc2cnc(CNC(=O)c3cc(F)c4c(c3)S(=O)(=O)[C@@H](F)CCO4)cc2n1 [Compound 99]

IC50 [1] [nM] | Ratio (BRG1 IC50 (μM) divided by BRM IC50 (μM)) [2] | IC50 [2] [nM] | Structure (SMILES)
171 | 22.99 | 8 | O=C(NCc1cc2nc(-c3cccc([C@@H]4CC4(F)F)n3)ccc2cn1)c1cc(F)c2c(c1)S(=O)(=O)[C@@H](F)COC2 [Compound 253]
385 | 28.86 | 9.4 | O=C(NCc1cc2cc(-c3cncc(C4CCC4)n3)ccc2cn1)c1cc(F)c2c(c1)S(=O)(=O)[C@@H](F)CCO2 [Compound 283]
37.5 | 13.99 | 2.7 | C[C@H]1[C@@H](F)CN1c1cnc2c(c1)OCCN2c1ccc2cnc(CNC(=O)c3cc(F)c4c(c3)S(=O)(=O)[C@@H](F)CCO4)cc2n1 [Compound 69]
101 | 16.77 | 6.1 | C[C@@H]1CN(c2cccc(-c3ccc4cnc(CNC(=O)c5ccc6c(c5)S(=O)(=O)[C@H](F)CO[C@H]6C)cc4n3)n2)C[C@H](C)O1 [Compound 200]
49.3 | 9.63 | 5.1 | Cc1cc2c(-c3ccc4cnc(CNC(=O)c5cc(F)c6c(c5)S(=O)(=O)[C@@H](F)CCO6)cc4n3)cccc2n1C [Compound 161]
94.6 | 9.97 | 9.5 | O=C(NCc1cc2nc(N3CCOc4c(N5CC(F)C5)ccnc43)ccc2cn1)c1cc(F)c2c(c1)S(=O)(=O)[C@@H](F)CCO2 [Compound 285]
185 | 19.83 | 7.6 | C[C@H](NC(=O)c1cc(F)c2c(c1)S(=O)(=O)[C@@H](F)CCO2)c1cc2nc(N3CCOc4cc(C5CC5)cnc43)ccc2cn1 [Compound 240]
81.5 | 19.09 | 4.3 | O=C(NCc1cc2nc(N3CCOc4ccc([C@H]5C[C@@H]5C(F)F)nc43)ccc2cn1)c1cc(F)c2c(c1)S(=O)(=O)[C@@H](F)CCO2 [Compound 125]
99.7 | 21.45 | 4.7 | COc1nc(C(F)F)ccc1-c1ccc2cnc(CNC(=O)c3cc(F)c4c(c3)S(=O)(=O)[C@@H](F)COC4)cc2c1 [Compound 137]
46.2 | 17.37 | 2.7 | CO[C@H]1CN(c2cccc(-c3ccc4cnc(CNC(=O)c5cc(F)c6c(c5)S(=O)(=O)[C@@H](F)CCO6)cc4n3)n2)C[C@@H]1C [Compound 67]
190 | 21.58 | 8 | O=C(NCc1cc2nc(N3CCOc4ccc(N5CC(F)(F)C5)nc43)ccc2cn1)c1cc(F)c2c(c1)S(=O)(=O)[C@@H](F)CCO2 [Compound 254]
98.6 | 20.63 | 4.6 | C[C@@H]1CN(c2cccc(-c3ccc4cnc(CNC(=O)c5cc(F)c6c(c5)S(=O)(=O)[C@@H](F)CO[C@@H]6C)cc4n3)n2)C[C@H](C)O1 [Compound 134]
35 | 22.36 | 1.8 | CCOc1nc(C(F)F)ccc1-c1ccc2cnc(CNC(=O)c3cc(F)c4c(c3)S(=O)(=O)[C@@H](F)COC4)cc2n1 [Compound 29]
33 | 18.05 | 1.8 | O=C(NCc1cc2nc(N3CCOc4cc(N5CC[C@H]5CF)cnc43)ccc2cn1)c1cc(F)c2c(c1)S(=O)(=O)[C@@H](F)CCO2 [Compound 31]
56 | 22.78 | 2.5 | C[C@@H]1CN(c2cccc(/C=C/c3ccnc(CNC(=O)c4cc(F)c5c(c4)S(=O)(=O)[C@@H](F)CCO5)c3)n2)C[C@H](C)O1 [Compound 52, (R)—N-((4-((E)-2-(6-((2S,6R)-2,6-dimethylmorpholino)pyridin-2-yl)vinyl)pyridin-2-yl)methyl)-4,9-difluoro-3,4-dihydro-2H-benzo[b][1,4]oxathiepine-7-carboxamide 5,5-dioxide]
461 | 49.95 | 7.1 | O=C(NCc1cc2nc(-c3cccc(OC(F)F)n3)ccc2cn1)c1cc(Cl)c2c(c1)S(=O)(=O)[C@@H](F)CCO2 [Compound 225]
295 | 29.29 | 9.9 | C[C@@H]1CCN1c1cnc2c(c1)OCCN2c1ccc2cnc(CNC(=O)c3cc(Br)c4c(c3)S(=O)(=O)[C@@H](F)CCO4)cc2n1 [Compound 299]
16.9 | 12.99 | 1.1 | CCOc1ccnc2c1CCCN2c1ccc2cnc(CNC(=O)c3cc(F)c4c(c3)S(=O)(=O)[C@@H](F)CCO4)cc2n1 [Compound 4]
